Experimental data: the supplement of paper PMC10307832

Tests used:
Experiment in all cases: relative viability (nuclei count vs DMSO), 5 days (fraction); higher = more cells survive
AGI-6780 = compound: O=C(Nc1cccc(C(F)(F)F)c1)Nc1cc(S(=O)(=O)NC2CC2)ccc1-c1ccsc1 [AGI-6780]
Procedure, shortened: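 Hoechst staining, done together with fixation and permeabilisation, marked nuclei for 4× imaging and MetaXpress counting. This followed 5 days without medium change after lung cancer cell lines, kept overnight at 37 °C in 1536-well plates, were pinned with five library-drug doses (not always all listed) spaced by √10 on vehicle-anchored plates. Viability is the ratio of treated-well to vehicle-well nuclei, expressed as a median across plates. Plates passed only at control CV below 25% with at least one doubling.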

AGI-6780 + Trametinib = compound: O=C(Nc1cccc(C(F)(F)F)c1)Nc1cc(S(=O)(=O)NC2CC2)ccc1-c1ccsc1 [AGI-6780] + CC(=O)Nc1cccc(-n2c(=O)n(C3CC3)c(=O)c3c(Nc4ccc(I)cc4F)n(C)c(=O)c(C)c32)c1 [Trametinib] (partner 0.02 µM)
Procedure, shortened: (§1)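 Relative viability was taken as the ratio of nuclei in treated wells to nuclei in vehicle wells. Lung cancer cell lines in 1536-well plates received compounds by pin tool one day after seeding, either one drug alone or a fixed anchor-drug dose plus five library-drug doses (not always all listed) in √10 steps. Nuclei were counted on 4× images after 5 days of treatment, and values are medians of duplicate plates.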

AGI-6780 + OSI-027 = compound: O=C(Nc1cccc(C(F)(F)F)c1)Nc1cc(S(=O)(=O)NC2CC2)ccc1-c1ccsc1 [AGI-6780] + COc1cccc2cc(-c3nc([C@H]4CC[C@H](C(=O)O)CC4)n4ncnc(N)c34)[nH]c12 [OSI-027] (partner 0.5 µM)
Procedure, shortened: as §1

AGI-6780 + Phenformin = compound: O=C(Nc1cccc(C(F)(F)F)c1)Nc1cc(S(=O)(=O)NC2CC2)ccc1-c1ccsc1 [AGI-6780] + N=C(N)NC(=N)NCCc1ccccc1 [Phenformin] (partner 250 µM)
Procedure, shortened: as §1

| Cell Line | relative viability (AGI-6780; 0.08 µM) | relative viability (AGI-6780; 0.253 µM) | relative viability (AGI-6780; 0.8 µM) | relative viability (AGI-6780; 2.53 µM) | relative viability (AGI-6780; 8 µM) | relative viability (AGI-6780 + Trametinib; first compound 0.08 µM) | relative viability (AGI-6780 + Trametinib; first compound 0.253 µM) | relative viability (AGI-6780 + Trametinib; first compound 0.8 µM) | relative viability (AGI-6780 + Trametinib; first compound 2.53 µM) | relative viability (AGI-6780 + Trametinib; first compound 8 µM) | relative viability (AGI-6780 + OSI-027; first compound 0.08 µM) | relative viability (AGI-6780 + OSI-027; first compound 0.253 µM) | relative viability (AGI-6780 + OSI-027; first compound 0.8 µM) | relative viability (AGI-6780 + OSI-027; first compound 2.53 µM) | relative viability (AGI-6780 + OSI-027; first compound 8 µM) | relative viability (AGI-6780 + Phenformin; first compound 0.08 µM) | relative viability (AGI-6780 + Phenformin; first compound 0.253 µM) | relative viability (AGI-6780 + Phenformin; first compound 0.8 µM) | relative viability (AGI-6780 + Phenformin; first compound 2.53 µM) | relative viability (AGI-6780 + Phenformin; first compound 8 µM) |
| --- | --- | --- | --- | --- | --- | --- | --- | --- | --- | --- | --- | --- | --- | --- | --- | --- | --- | --- | --- | --- |
| HCC-44 | 0.955 | 1.01 | 0.995 | 1.04 | 0.959 | 1.08 | 0.993 | 1.1 | 0.994 | 1.07 | 0.628 | 0.719 | 0.477 | 0.47 | 0.594 | 0.182 | 0.202 | 0.354 | 0.175 | 0.257 |
| HCC-78 | 0.876 | 1.04 | 1.05 | 0.982 | 1.02 | 0.824 | 0.629 | 0.925 | 0.924 | 0.775 | – | 0.37 | 0.431 | 0.364 | 0.355 | – | 0.735 | 0.814 | 0.716 | 0.607 |
| HCC-366 | 1.01 | 1.08 | 1.01 | 0.96 | 1.02 | 0.395 | 0.375 | 0.365 | 0.156 | 0.301 | 1.02 | 1.09 | 0.926 | 0.595 | 1 | 0.615 | 0.667 | 0.589 | 0.321 | 0.682 |
| HCC-827 | 1.06 | 1.06 | 1.01 | 1.07 | 1.02 | 0.457 | 0.518 | 0.518 | 0.435 | 0.476 | 0.68 | 0.705 | 0.824 | 0.673 | 0.798 | 0.423 | 0.39 | 0.413 | 0.395 | 0.376 |
| HOP-62 | 1.03 | 1.01 | 0.994 | 0.984 | 1.03 | 0.366 | 0.321 | 0.316 | 0.321 | 0.396 | 0.886 | 0.906 | 0.884 | 0.715 | 1.01 | 0.684 | 0.663 | 0.876 | 0.689 | 0.763 |
| IA-LM | 0.921 | 0.954 | 1.15 | 1.02 | 1.04 | – | – | – | – | – | – | – | – | – | – | – | – | – | – | – |
| LC-2-ad | 1.02 | 1.05 | 1.1 | 0.96 | 0.996 | 0.917 | 0.873 | 0.931 | 0.964 | 0.917 | 0.829 | 0.875 | 0.874 | 0.638 | 0.794 | 0.623 | 0.59 | 0.605 | 0.54 | 0.505 |
| LCLC-97TM1 | 0.959 | 0.983 | 1.03 | 0.758 | 0.966 | 0.173 | 0.21 | 0.152 | 0.159 | 0.197 | 0.596 | 0.697 | 0.492 | 0.398 | 0.643 | 0.402 | 0.409 | 0.419 | 0.439 | 0.436 |
| LCLC-103H | 1.05 | 1.08 | 0.963 | 0.861 | 0.941 | 0.678 | 0.709 | 0.643 | 0.644 | 0.696 | 0.554 | 0.518 | 0.45 | 0.38 | 0.491 | 0.311 | 0.305 | 0.338 | 0.33 | 0.375 |
| LK-2 | 0.945 | 1.02 | 1.08 | – | 1.16 | 0.864 | 0.69 | 0.813 | 0.541 | 0.868 | 0.172 | 0.224 | 0.189 | – | 0.197 | 0.598 | 0.556 | 0.648 | – | 0.495 |
| LOU-NH91 | 0.953 | 0.992 | 1.04 | 0.923 | 0.961 | 0.826 | 0.777 | 0.765 | 0.751 | 0.824 | 0.739 | 0.705 | 0.676 | 0.621 | 0.709 | 0.707 | 0.659 | 0.774 | 0.677 | 0.698 |
| LU99A | 0.975 | 0.928 | 0.987 | 0.839 | 0.931 | 0.547 | 0.572 | 0.431 | 0.44 | 0.534 | 0.339 | 0.304 | 0.28 | 0.255 | 0.31 | 0.866 | 0.747 | 0.815 | 0.773 | 0.79 |
| NCI-H1299 | 1 | 0.98 | 0.955 | 1.04 | 1.01 | – | – | – | – | – | – | – | – | – | – | – | – | – | – | – |
| NCI-H1563 | 0.999 | 1.02 | 0.949 | 0.87 | 0.98 | – | – | – | – | – | 0.784 | 0.752 | 0.805 | 0.666 | 0.728 | 0.671 | 0.666 | 0.66 | 0.643 | 0.672 |
| NCI-H1648 | 0.735 | 0.999 | 0.983 | 0.942 | 1.08 | 0.47 | 0.53 | 0.377 | 0.409 | 0.433 | 0.26 | 0.292 | 0.258 | 0.277 | 0.242 | – | – | – | – | – |
| NCI-H1703 | 0.949 | 0.84 | 1.02 | 0.823 | 0.807 | – | – | – | – | – | – | – | – | – | – | – | – | – | – | – |
